Read-outs that look alike come from different tables or passages of the source.
What was measured:
[1] = tested on: locomotor activity in mice; experiment: Inhibition of locomotor activity in mice; assay type: in vivo; conditions: for ED50: Mus musculus, ip, read-out: Inhibition of Locomotor Activity in Mice ED50
Procedure: (§1) The compounds of Formula I are valuable dopaminergic agents. […] Thus, the compounds of Formula I were tested for their ability to inhibit locomotor activity in mice according to the assay described by J. R. McLean, et al, Pharmacology, Biochemistry and Behavior, Volume 8, pages 97-99 (1978); for their ability to inhibit haloperidol binding in a receptor assay described by D. R. Burt, et al, Molecular Pharmacology, Volume 12, pages 800-812 (1976); and for their ability to inhibit dopamine synthesis in rats according to the protocol described by J. R. Walters and R. H. Roth, Naunyn--Schmiedeberg's Archives of Pharmacology, Volume 296, pages 5-14 (1976). The above test methods are incorporated herein by reference.

[2] = target: T1, haloperidol binding in a receptor assay (Bos taurus, UniProt P20288); experiment: Inhibition of haloperidol binding
T1 construct: from tissue; host or cells: calf brain (caudate/striatal) membranes, inferred from the cited method
Procedure: as §1

[3] = tested on: dopamine synthesis in rats; experiment: Inhibition of dopamine synthesis in rats; assay type: in vivo; conditions: IP
Procedure: as §1

T1 sequence (P20288 whole entry): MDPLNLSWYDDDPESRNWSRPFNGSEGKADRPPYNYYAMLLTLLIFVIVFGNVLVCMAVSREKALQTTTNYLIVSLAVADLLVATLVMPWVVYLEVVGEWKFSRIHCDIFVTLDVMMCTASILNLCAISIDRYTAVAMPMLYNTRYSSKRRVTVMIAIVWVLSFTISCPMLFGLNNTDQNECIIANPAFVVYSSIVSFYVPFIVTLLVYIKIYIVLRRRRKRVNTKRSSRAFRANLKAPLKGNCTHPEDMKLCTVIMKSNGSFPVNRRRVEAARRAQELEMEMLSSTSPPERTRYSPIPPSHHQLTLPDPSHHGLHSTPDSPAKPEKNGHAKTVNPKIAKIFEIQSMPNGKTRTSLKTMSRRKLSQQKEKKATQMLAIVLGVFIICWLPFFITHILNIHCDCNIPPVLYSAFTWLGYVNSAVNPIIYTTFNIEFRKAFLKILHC

Question: What does the source list for `Nc1nc2c(s1)CC(N1CCN(c3ccccn3)CC1)CC2` (racemic) [Example 1, (±)-4,5,6,7-Tetrahydro-6-[4-(2-pyridinyl)-1-piperazinyl]-2-benzothiazolamine]?
Answer: ED50 ([1]; mice, IP): 6.6 mg/kg; IC50 [2]: 876 nM; Inhibition of Dopamine Synthesis in Rats ([3]; at 4.4 mg/kg): 50%

Question: What does the source list for `Nc1nc2c(s1)CC(N1CC=C(c3ccccc3)CC1)CC2` (racemic) [Example 1a, (±)-6-(3,6-Dihydro-4-phenyl-1(2H)-pyridinyl)-4,5,6,7-tetrahydro-2-benzothiazolamine]?
Answer: ED50 [1]: 1.5 mg/kg; Inhibition of Dopamine Synthesis in Rats ([3]; at 10 mg/kg): 69%

Question: Which ED50 ([1]; mice, IP) does the source give for `Nc1nc2c(s1)CC(N1CCN(c3ccccc3)CC1)CC2` (racemic) [Example 1b, (±)-4,5,6,7-Tetrahydro-6-(4-phenyl-1-piperazinyl)-2-benzothiazolamine] here?
Answer: 6.1 mg/kg

Question: How did the ED50 ([1]; mice, IP) turn out when `Nc1nc2c(s1)CC(N1CCN(c3ncccn3)CC1)CC2` (racemic) [Example 1c, (±)-4,5,6,7-Tetrahydro-6-[4-(2-pyrimidinyl)-1-piperazinyl]-2-benzothiazolamine] was run?
Answer: 30 mg/kg

Question: Which ED50 ([1]; mice, IP) does the source give for `O=C(Nc1nc2c(s1)CC(N1CCN(c3ccccn3)CC1)CC2)c1ccccc1` (racemic) [Example 2, (±)-N-[4,5,6,7-Tetrahydro-6-[4-(2-pyridinyl)-1-piperazinyl]-2-benzothiazolyl]benzamide] here?
Answer: 3.7 mg/kg

Question: What about the “Inhibition of Dopamine Synthesis in Rats” value ([3]; at 10 mg/kg) of the same compound?
Answer: 59%

Question: Which ED50 ([1]; mice, IP) does the source give for `c1ccc(N2CCN(CC3CCc4ncsc4C3)CC2)nc1` (racemic) [Example 5, (±)-4,5,6,7-tetrahydro-6-[[4-(2-pyridinyl)-1-piperazinyl]methyl]benzothiazole] here?
Answer: 7.4 mg/kg

Question: What does the source list for `Nc1nc2c(s1)CC(CN1CCN(c3ccccn3)CC1)CC2` (racemic) [Example 7, (±)-4,5,6,7-Tetrahydro-6-[[4-(2-pyridinyl)-1-piperazinyl]methyl]-2-benzothiazolamine]?
Answer: ED50 ([1]; mice, IP): 7.2 mg/kg; Inhibition of Dopamine Synthesis in Rats ([3]; at 10 mg/kg): 48%

Question: With `Nc1nc2c(s1)CC(CN1CC=C(c3ccccc3)CC1)CC2` (racemic) [Example 8, (±)-6-[(3,6-Dihydro-4-phenyl-1(2H)-pyridinyl)methyl]-4,5,6,7-tetrahydro-2-benzothiazolamine] as the compound, how does the ED50 [1] read?
Answer: 0.75 mg/kg

Question: What does the source list for `Nc1nc2c(s1)CC(CCN1CCN(c3ccccn3)CC1)CC2` (racemic) [Example 9, (±)-4,5,6,7-Tetrahydro-6-[2-[4-(2-pyridinyl)-1-piperazinyl]ethyl]-2-benzothiazolamine]?
Answer: ED50 ([1]; mice, IP): 0.21 mg/kg; IC50 [2]: 105 nM; Inhibition of Dopamine Synthesis in Rats ([3]; at 1.3 mg/kg): 50%

Question: For `Nc1nc2c(s1)CC(CCN1CC=C(c3ccccc3)CC1)CC2` (racemic) [Example 10, (±)-6-[2-(3,6-Dihydro-4-phenyl-1(2H)-pyridinyl)ethyl]-4,5,6,7-tetrahydro-2-benzothiazolamine], which ED50 [1] is on record?
Answer: 0.4 mg/kg

Question: Which ED50 ([1]; mice, IP) does the source give for `Nc1nc2c(s1)CC(N1CCN(c3ccccn3)CC1)CC2` (single isomer, unassigned; (+)) [Example 3, (+)-4,5,6,7-Tetrahydro-6-[4-(2-pyridinyl)-1-piperazinyl]-2-benzothiazolamine] here?
Answer: 9.9 mg/kg

Question: What about the IC50 [2] of the same compound?
Answer: ~800 nM

Question: And the “Inhibition of Dopamine Synthesis in Rats” value ([3]; at 7.0 mg/kg)?
Answer: 50%

Question: What does the source list for `Nc1nc2c(s1)CC(CCN1CCN(c3ccccn3)CC1)CC2` (single isomer, unassigned; (+)) [Example 11, (+)-4,5,6,7-Tetrahydro-6-[2-[4-(2-pyridinyl)-1-piperazinyl]ethyl]-2-benzothiazolamine]?
Answer: Inhibition of Locomotor Activity in Mice ED50 ([1]; mice, IP): 0.37 mg/kg; Inhibition of Dopamine Synthesis in Rats ([3]; at 0.8 mg/kg): 50%

Question: Which “Inhibition of Locomotor Activity in Mice ED50” value ([1]; mice, IP) does the source give for `Nc1nc2c(s1)CC(N1CCN(c3ccccn3)CC1)CC2` (single isomer, unassigned; (-)) [Example 4, (-)-4,5,6,7-Tetrahydro-6-[4-(2-pyridinyl)-1-piperazinyl]-2-benzothiazolamine] here?
Answer: 7.4 mg/kg

Question: What about the IC50 [2] of the same compound?
Answer: ~1500 nM

Question: What about the “Inhibition of Dopamine Synthesis in Rats” value ([3]; at 4.8 mg/kg) of the same compound?
Answer: 50%

Question: How did the ED50 ([1]; mice, IP) turn out when `Nc1nc2c(s1)CC(CCN1CCN(c3ccccn3)CC1)CC2` (single isomer, unassigned; (-)) [Example 11a, (-)-4,5,6,7-Tetrahydro-6-[2-[4-(2-pyridinyl)-1-piperazinyl]ethyl]-2-benzothiazolamine] was run?
Answer: 0.2 mg/kg

Question: What about the “Inhibition of Dopamine Synthesis in Rats” value ([3]; at 0.2 mg/kg) of the same compound?
Answer: 50%

Reference: patent US4988699A, “Substituted tetrahydrobenzothiazoles as dopaminergic agents” (Warner-Lambert Company, priority 1989, dated 1991)
